± gives the expanded uncertainty stated by the source.
Assay: mn = molality of the nth substance listed, in mol/kg
Details: 100 kPa, Liquid, Direct current cell with electrodes

CCn1cc[n+](C)c1.F[B-](F)(F)F [1-ethyl-3-methylimidazolium tetrafluoroborate] + CN(C)C=O
Details | molar conductivity [S·m2/mol]
283.15 K, m1 = 0.0001021 | 0.007524 ± 1e-05
283.15 K, m1 = 0.0002894 | 0.00744 ± 1e-05
283.15 K, m1 = 0.0004617 | 0.007387 ± 1e-05
283.15 K, m1 = 0.000707 | 0.007326 ± 1e-05
283.15 K, m1 = 0.001158 | 0.007238 ± 1e-05
283.15 K, m1 = 0.001876 | 0.007128 ± 1e-05
283.15 K, m1 = 0.002909 | 0.007001 ± 1e-05
283.15 K, m1 = 0.00391 | 0.006899 ± 1e-05
283.15 K, m1 = 0.006046 | 0.006724 ± 1e-05
283.15 K, m1 = 0.008043 | 0.006596 ± 1e-05
283.15 K, m1 = 0.01002 | 0.006492 ± 1e-05
283.15 K, m1 = 0.01201 | 0.006403 ± 1e-05
283.15 K, m1 = 0.0149 | 0.006286 ± 1e-05
288.15 K, m1 = 9.159e-05 | 0.008075 ± 1e-05
288.15 K, m1 = 0.0002695 | 0.007983 ± 1e-05
288.15 K, m1 = 0.0005098 | 0.007901 ± 1e-05
288.15 K, m1 = 0.0006932 | 0.007851 ± 1e-05
288.15 K, m1 = 0.001168 | 0.007746 ± 1e-05
288.15 K, m1 = 0.001915 | 0.007619 ± 1e-05
288.15 K, m1 = 0.002887 | 0.007489 ± 1e-05
288.15 K, m1 = 0.003934 | 0.007374 ± 1e-05
288.15 K, m1 = 0.005914 | 0.007199 ± 1e-05
288.15 K, m1 = 0.007975 | 0.007057 ± 1e-05
288.15 K, m1 = 0.009937 | 0.006944 ± 1e-05
288.15 K, m1 = 0.01205 | 0.00684 ± 1e-05
288.15 K, m1 = 0.01487 | 0.006715 ± 1e-05
293.15 K, m1 = 0.0001225 | 0.008604 ± 1e-05
293.15 K, m1 = 0.0002931 | 0.008516 ± 1e-05
293.15 K, m1 = 0.0004907 | 0.008442 ± 1e-05
293.15 K, m1 = 0.0007255 | 0.008372 ± 1e-05
293.15 K, m1 = 0.001177 | 0.008263 ± 1e-05
293.15 K, m1 = 0.001892 | 0.00813 ± 1e-05
293.15 K, m1 = 0.002911 | 0.007981 ± 1e-05
293.15 K, m1 = 0.003932 | 0.00786 ± 1e-05
293.15 K, m1 = 0.005979 | 0.007668 ± 1e-05
293.15 K, m1 = 0.007979 | 0.00752 ± 1e-05
293.15 K, m1 = 0.009955 | 0.007398 ± 1e-05
293.15 K, m1 = 0.01193 | 0.007292 ± 1e-05
293.15 K, m1 = 0.0148 | 0.007155 ± 1e-05
298.15 K, m1 = 0.0001133 | 0.009167 ± 1e-05
298.15 K, m1 = 0.0002704 | 0.009077 ± 1e-05
298.15 K, m1 = 0.000473 | 0.008993 ± 1e-05
298.15 K, m1 = 0.0006719 | 0.008926 ± 1e-05
298.15 K, m1 = 0.001151 | 0.008798 ± 1e-05
298.15 K, m1 = 0.001932 | 0.008639 ± 1e-05
298.15 K, m1 = 0.00291 | 0.008486 ± 1e-05
298.15 K, m1 = 0.003882 | 0.008361 ± 1e-05
298.15 K, m1 = 0.005957 | 0.008152 ± 1e-05
298.15 K, m1 = 0.007912 | 0.007996 ± 1e-05
298.15 K, m1 = 0.009961 | 0.007859 ± 1e-05
298.15 K, m1 = 0.012 | 0.007742 ± 1e-05
298.15 K, m1 = 0.01485 | 0.007598 ± 1e-05
303.15 K, m1 = 0.0001433 | 0.009709 ± 1e-05
303.15 K, m1 = 0.0002976 | 0.009622 ± 1e-05
303.15 K, m1 = 0.000507 | 0.009532 ± 1e-05
303.15 K, m1 = 0.0007136 | 0.00946 ± 1e-05
303.15 K, m1 = 0.001172 | 0.00933 ± 1e-05
303.15 K, m1 = 0.001894 | 0.009172 ± 1e-05
303.15 K, m1 = 0.002913 | 0.008999 ± 1e-05
303.15 K, m1 = 0.003926 | 0.008861 ± 1e-05
303.15 K, m1 = 0.005879 | 0.008649 ± 1e-05
303.15 K, m1 = 0.007956 | 0.008471 ± 1e-05
303.15 K, m1 = 0.009924 | 0.00833 ± 1e-05
303.15 K, m1 = 0.01202 | 0.0082 ± 1e-05
303.15 K, m1 = 0.01489 | 0.00805 ± 1e-05
308.15 K, m1 = 0.0001026 | 0.01031 ± 1e-05
308.15 K, m1 = 0.0003641 | 0.010155 ± 1e-05
308.15 K, m1 = 0.0005016 | 0.010095 ± 1e-05
308.15 K, m1 = 0.0006664 | 0.010033 ± 1e-05
308.15 K, m1 = 0.001147 | 0.009884 ± 1e-05
308.15 K, m1 = 0.001947 | 0.009697 ± 1e-05
308.15 K, m1 = 0.002894 | 0.009525 ± 1e-05
308.15 K, m1 = 0.003883 | 0.009379 ± 1e-05
308.15 K, m1 = 0.00584 | 0.009149 ± 1e-05
308.15 K, m1 = 0.007991 | 0.008948 ± 1e-05
308.15 K, m1 = 0.00998 | 0.008792 ± 1e-05
308.15 K, m1 = 0.01192 | 0.008661 ± 1e-05
308.15 K, m1 = 0.01486 | 0.008494 ± 1e-05
313.15 K, m1 = 9.519e-05 | 0.010895 ± 1e-05
313.15 K, m1 = 0.0002775 | 0.010772 ± 1e-05
313.15 K, m1 = 0.000472 | 0.010677 ± 1e-05
313.15 K, m1 = 0.0006836 | 0.010592 ± 1e-05
313.15 K, m1 = 0.001159 | 0.010438 ± 1e-05
313.15 K, m1 = 0.001948 | 0.010242 ± 1e-05
313.15 K, m1 = 0.002909 | 0.010057 ± 1e-05
313.15 K, m1 = 0.003934 | 0.009897 ± 1e-05
313.15 K, m1 = 0.005955 | 0.009647 ± 1e-05
313.15 K, m1 = 0.007964 | 0.009449 ± 1e-05
313.15 K, m1 = 0.009905 | 0.009289 ± 1e-05
313.15 K, m1 = 0.01192 | 0.009147 ± 1e-05
313.15 K, m1 = 0.0152 | 0.008968 ± 1e-05
318.15 K, m1 = 0.0001002 | 0.011475 ± 1e-05
318.15 K, m1 = 0.0002722 | 0.011357 ± 1e-05
318.15 K, m1 = 0.0004294 | 0.011275 ± 1e-05
318.15 K, m1 = 0.0006853 | 0.011165 ± 1e-05
318.15 K, m1 = 0.001173 | 0.011 ± 1e-05
318.15 K, m1 = 0.001899 | 0.010808 ± 1e-05
318.15 K, m1 = 0.002947 | 0.010593 ± 1e-05
318.15 K, m1 = 0.003909 | 0.010433 ± 1e-05
318.15 K, m1 = 0.005941 | 0.010163 ± 1e-05
318.15 K, m1 = 0.007935 | 0.009952 ± 1e-05
318.15 K, m1 = 0.009999 | 0.00977 ± 1e-05
318.15 K, m1 = 0.012 | 0.009623 ± 1e-05
318.15 K, m1 = 0.01494 | 0.009458 ± 1e-05

Source: the NIST ThermoML archive (doi:10.1021/je201014c)
